Data taken from patent publication US20170368082A1, “FORMULATIONS OF BRINCIDOFOVIR” (priority 2016, published 2017).

How the values were obtained:
[1] = IV BCV single ascending dose study in healthy subjects: safety; format: in vivo, human
Description: Plasma PK samples were collected over 7 days and assayed by HPLC-MS. Plasma BCV PK parameters were determined by non-compartmental analysis and dose proportionality was assessed. Safety assessments were collected over 14 days.

[2] = Clinical infusion bag compatibility; format: physicochemical
Description: A standard mini-infusion bag (100 mL) was subjected to material compatibility testing with the following formulation:
The developed brincidofovir formulation (15 mg/mL brincidofovir, 200 mM sodium phosphate, pH=8.0) was diluted to c(BCV)=0.1 and c(BCV)=1.0 mg/mL by injection into the infusion bags. The infusion bags were then stored at ambient conditions, and samples were collected from the infusion bags at the time points (t0, t1h, t8h, and t24h) for assessments of appearance, pH, and c(BCV). As a control, the 5% dextrose solution was removed from a separate infusion bag, and external dilutions (standard laboratory glassware) of the testing formulation with the 5% dextrose solution were performed applying identical dilution factors. Samples of the external diluted solution were likewise analyzed.
Solutions of Formulation 3a, in a 5% dextrose injection vehicle, were prepared at two different formulation strengths (1.0 mg/mL and 0.1 mg/mL brincidofovir), and stored in the infusion bag at ambient conditions. Samples form the infusion bags and from an externally diluted standard were evaluated for appearance, pH and brincidofovir recovery (determined via HPLC) at the beginning of the study (t0), after 8 h (t8h), and after 24 h (t24h).

[3] = Drug product vial and stopper compatibility; format: physicochemical
Description: Formulations of the disclosure were evaluated for […]. The testing formulation (5 mL, 10 mg/mL brincidofovir, 200 mM sodium phosphate, pH=8.0) was dispensed into a set of Afton sterilized, Ready-To-Fill® vials. The vials were stoppered with West NovaPure® stoppers and crimped with Afton Ready-To-Fill® sterilized seals, and stored for 6 hours at ambient conditions in upright and inverted orientations. Samples of the filling solution were collected before filling and after 6 hours of storage under the respective condition. The collected samples were assessed for their appearance, pH, and c(BCV). […] No additional impurity was introduced following contact.
The vials used for testing were clear, 20 mL, Class A borosilicate glass serum vials, and the stoppers were 20 mm Novapure® stoppers, with FluroTec® coating.

[4] = Cohort 1, BCV 10 mg 2 h infusion, n = 6
[5] = Cohort 2, BCV 25 mg 2 h infusion, n = 6
[6] = Cohort 3, BCV 50 mg 2 h infusion, n = 9
[7] = Cohort 4, BCV 50 mg 4 h infusion, n = 9
[8] = c(BCV) 0.1 mg/mL in infusion bag, t0
[9] = c(BCV) 0.1 mg/mL in infusion bag, t1 h
[10] = c(BCV) 0.1 mg/mL in infusion bag, t8 h
[11] = c(BCV) 0.1 mg/mL in infusion bag, t24 h
[12] = c(BCV) 0.1 mg/mL, external dilution
[13] = c(BCV) 1.0 mg/mL in infusion bag, t0
[14] = c(BCV) 1.0 mg/mL in infusion bag, t1 h
[15] = c(BCV) 1.0 mg/mL in infusion bag, t8 h
[16] = c(BCV) 1.0 mg/mL in infusion bag, t24 h
[17] = c(BCV) 1.0 mg/mL, external dilution

With CCCCCCCCCCCCCCCCOCCCOP(=O)(O)CO[C@H](CO)Cn1ccc(N)nc1=O [Brincidofovir] the “Drug-Related AEs: Decreased appetite (number of subjects)” value [1, 4] was 0, the “Drug-Related AEs: Diarrhea (number of subjects)” value [1, 4] was 0 and the “Drug-Related AEs: Elevated liver transaminases (number of subjects)” value [1, 4] was 0. For the same molecule, the “Drug-Related AEs: Headache (number of subjects)” value [1, 4] was 0, the “Drug-Related AEs: Nausea (number of subjects)” value [1, 4] was 0 and the “Drug-Related AEs: Pain, phlebitis at infusion site (number of subjects)” value [1, 4] was 0. For the same molecule, the “Grade 3 or 4 Drug-Related AEs: Decreased appetite (number of subjects)” value [1, 4] was 0, the “Grade 3 or 4 Drug-Related AEs: Diarrhea (number of subjects)” value (“Grade 3 or 4 Drug-Related AEs: Diarrhea” below) [1, 4] was 0 and the “Grade 3 or 4 Drug-Related AEs: Elevated liver transaminases (number of subjects)” value [1, 4] was 0. For the same molecule, the “Grade 3 or 4 Drug-Related AEs: Headache (number of subjects)” value (shortened to “Grade 3 or 4 Drug-Related AEs: Headache”) [1, 4] was 0, the “Grade 3 or 4 Drug-Related AEs: Nausea (number of subjects)” value (“Grade 3 or 4 Drug-Related AEs: Nausea” for short) [1, 4] was 0 and the “Grade 3 or 4 Drug-Related AEs: Pain, phlebitis at infusion site (number of subjects)” value (from here on “Grade 3 or 4 Drug-Related AEs: Pain”) [1, 4] was 0. For the same molecule, the “Drug-Related AEs: Decreased appetite (number of subjects)” value [1, 5] was 0, the “Drug-Related AEs: Diarrhea (number of subjects)” value [1, 5] was 0 and the “Drug-Related AEs: Elevated liver transaminases (number of subjects)” value [1, 5] was 0. For the same molecule, the “Drug-Related AEs: Headache (number of subjects)” value [1, 5] was 0, the “Drug-Related AEs: Nausea (number of subjects)” value [1, 5] was 0 and the “Drug-Related AEs: Pain, phlebitis at infusion site (number of subjects)” value [1, 5] was 0. The “Grade 3 or 4 Drug-Related AEs: Decreased appetite (number of subjects)” value [1, 5] was 0, the “Grade 3 or 4 Drug-Related AEs: Diarrhea” value [1, 5] was 0 and the “Grade 3 or 4 Drug-Related AEs: Elevated liver transaminases (number of subjects)” value [1, 5] was 0. For the same molecule, the “Grade 3 or 4 Drug-Related AEs: Headache” value [1, 5] was 0, the “Grade 3 or 4 Drug-Related AEs: Nausea” value [1, 5] was 0 and the “Grade 3 or 4 Drug-Related AEs: Pain” value [1, 5] was 0. The “Drug-Related AEs: Decreased appetite (number of subjects)” value [1, 6] was 0, the “Drug-Related AEs: Diarrhea (% of subjects)” value [1, 6] was “(11%)” and the “Drug-Related AEs: Diarrhea (number of subjects)” value [1, 6] was 1. For the same molecule, the “Drug-Related AEs: Elevated liver transaminases (number of subjects)” value [1, 6] was 0, the “Drug-Related AEs: Headache (% of subjects)” value [1, 6] was “(22%)” and the “Drug-Related AEs: Headache (number of subjects)” value [1, 6] was 2. The “Drug-Related AEs: Nausea (number of subjects)” value [1, 6] was 0, the “Drug-Related AEs: Pain, phlebitis at infusion site (% of subjects)” value [1, 6] was “(11%)” and the “Drug-Related AEs: Pain, phlebitis at infusion site (number of subjects)” value [1, 6] was 1. For the same molecule, the “Grade 3 or 4 Drug-Related AEs: Decreased appetite (number of subjects)” value [1, 6] was 0, the “Grade 3 or 4 Drug-Related AEs: Diarrhea” value [1, 6] was 0 and the “Grade 3 or 4 Drug-Related AEs: Elevated liver transaminases (number of subjects)” value [1, 6] was 0. For the same molecule, the “Grade 3 or 4 Drug-Related AEs: Headache” value [1, 6] was 0, the “Grade 3 or 4 Drug-Related AEs: Nausea” value [1, 6] was 0 and the “Grade 3 or 4 Drug-Related AEs: Pain” value [1, 6] was 0. For the same molecule, the “Drug-Related AEs: Decreased appetite (% of subjects)” value [1, 7] was “(11%)”, the “Drug-Related AEs: Decreased appetite (number of subjects)” value [1, 7] was 1 and the “Drug-Related AEs: Diarrhea (% of subjects)” value [1, 7] was “(33%)”. For the same molecule, the “Drug-Related AEs: Diarrhea (number of subjects)” value [1, 7] was 3, the “Drug-Related AEs: Elevated liver transaminases (% of subjects)” value [1, 7] was “(11%)” and the “Drug-Related AEs: Elevated liver transaminases (number of subjects)” value [1, 7] was 1. For the same molecule, the “Drug-Related AEs: Headache (% of subjects)” value [1, 7] was “(22%)”, the “Drug-Related AEs: Headache (number of subjects)” value [1, 7] was 2 and the “Drug-Related AEs: Nausea (% of subjects)” value [1, 7] was “(22%)”. For the same molecule, the “Drug-Related AEs: Nausea (number of subjects)” value [1, 7] was 2, the “Drug-Related AEs: Pain, phlebitis at infusion site (number of subjects)” value [1, 7] was 0 and the “Grade 3 or 4 Drug-Related AEs: Decreased appetite (number of subjects)” value [1, 7] was 0. For the same molecule, the “Grade 3 or 4 Drug-Related AEs: Diarrhea” value [1, 7] was 0, the “Grade 3 or 4 Drug-Related AEs: Elevated liver transaminases (% of subjects)” value [1, 7] was “(11%)” and the “Grade 3 or 4 Drug-Related AEs: Elevated liver transaminases (number of subjects)” value [1, 7] was 1. For the same molecule, the “Grade 3 or 4 Drug-Related AEs: Headache” value [1, 7] was 0, the “Grade 3 or 4 Drug-Related AEs: Nausea” value [1, 7] was 0 and the “Grade 3 or 4 Drug-Related AEs: Pain” value [1, 7] was 0. The Adverse events ([1]; IV 10 mg and 25 mg) was “No drug related adverse events”, the Safety and tolerability ([1]; IV 10 mg and 25 mg) was “generally safe and well-tolerated” and the Bilirubin ([1]; any cohort) was “No Grade 2 or higher bilirubin”. The ALT elevations ([1]; cohort 4) was “transient grade 2-3 ALT elevations”, the Serious adverse events ([1]; human, in vivo) was “no serious adverse events occurred” and the Tolerability ([1]; single doses 10-50 mg, 2h IV infusion) was “well tolerated”. The ALT elevations ([1]; therapeutic IV exposures (cohorts 1 and 2)) was “no grade 2 or higher ALT elevations were observed”, the Appearance [2, 8] was “Clear,” and the “Measured pH” value [2, 8] was 7.9. The “Observed c(BCV)” value [2, 8] was 0.092 mg/mL, the Appearance [2, 9] was “Clear,” and the “Measured pH” value [2, 9] was 7.9. The “Observed c(BCV)” value [2, 9] was 0.093 mg/mL, the Appearance [2, 10] was “Clear,” and the “Measured pH” value [2, 10] was 7.9. For the same molecule, the “Observed c(BCV)” value [2, 10] was 0.093 mg/mL, the Appearance [2, 11] was “Clear,” and the “Measured pH” value [2, 11] was 7.9. The “Observed c(BCV)” value [2, 11] was 0.093 mg/mL, the Appearance [2, 12] was “Clear,” and the “Measured pH” value [2, 12] was 7.9. For the same molecule, the “Observed c(BCV)” value [2, 12] was 0.098 mg/mL, the Appearance [2, 13] was “Clear,” and the “Measured pH” value [2, 13] was 8.2. The “Observed c(BCV)” value [2, 13] was 0.87 mg/mL, the Appearance [2, 14] was “Clear,” and the “Measured pH” value [2, 14] was 8.2. The “Observed c(BCV)” value [2, 14] was 0.87 mg/mL, the Appearance [2, 15] was “Clear,” and the “Measured pH” value [2, 15] was 8.2. For the same molecule, the “Observed c(BCV)” value [2, 15] was 0.87 mg/mL, the Appearance [2, 16] was “Clear,” and the “Measured pH” value [2, 16] was 8.1. For the same molecule, the “Observed c(BCV)” value [2, 16] was 0.86 mg/mL, the Appearance [2, 17] was “Clear,” and the “Measured pH” value [2, 17] was 8.2. The “Observed c(BCV)” value [2, 17] was 0.94 mg/mL, the Appearance ([3]; Inverted, 6 h) was “Clear, colorless” and the “Measured pH” value ([3]; Inverted, 6 h) was 8.0. For the same molecule, the “Observed c(BCV)” value ([3]; Inverted, 6 h) was 9.4 mg/mL, the Appearance ([3]; Pre filling) was “Clear, colorless” and the “Measured pH” value ([3]; Pre filling) was 8.0. For the same molecule, the “Observed c(BCV)” value ([3]; Pre filling) was 9.5 mg/mL, the Appearance ([3]; Upright, 6 h) was “Clear, colorless” and the “Measured pH” value ([3]; Upright, 6 h) was 8.0. For the same molecule, the “Observed c(BCV)” value ([3]; Upright, 6 h) was 9.5 mg/mL.
